Experimental data from patent publication US8937167B2 (Washington University, priority 2009, dated 2015).
Entries after “also recorded” stand apart in the source; their conditions may differ.

Assays:
[1] = target: T1, FimH lectin domain (residues 1-158 of UPEC J96 FimH) (Escherichia coli, UniProt P08191); type: binding; conditions: Table 20; compound at 100 μM
T1 construct: made in house
Protocol: DSF measures the melting temperature change of protein when binding to small molecules. Melting temperature shifts are proportional to the free energy of binding, and melting temperatures increase even as ligand concentration exceeds the Kd.
FimH lectin domain (residues 1-158 of UPEC J96 FimH, without an affinity tag) was purified as described previously. Five micrograms FimH in 5 μl HBS were mixed with HBS to yield a final volume of 50 μl containing compound at a final concentration of 100 μM and a “5×” final concentration of SYPRO Orange (sold as a “5000×” stock in DMSO and mixed with HBS to a working stock of 50× immediately before use: Life Technologies Inc.; Grand Island, N.Y.). Compounds were diluted to 100 μM from stocks in DMSO and compared to matched control wells with FimH alone plus 0.2% DMSO. 50 μl reactions were placed in 96-well clear-bottom PCR plates and subjected to a melt curve from 20-90° C. in 0.5° C. increments of 15 seconds each followed by a fluorescence read of the “HEX” channel in a Bio-Rad CFX96 thermocycler (Bio-Rad, Hercules, Calif.). Melt curves were fitted to the Boltzmann equation to determine the melting temperature (Tm) (y=A2+(A1−A2)/(1+exp((x−x0)/dx)) where x0 is the Tm) using OriginPro 8 (OriginLab, Northampton Mass.).

[2] = tested on: UTI89; test: Ex vivo gentamicin protection assay of infected mouse bladders (luminal vs intracellular bacteria); type: in vivo, E. coli (UPEC); host mouse; conditions: IP 5 mg/kg pretreatment; 6 hpi
Description: Based on the extensive elucidation of the UPEC pathogenic cascade, critical nodes in pathogenesis that mannosides would target and thereby have powerful and potent therapeutic ramifications were identified. The first step in the UPEC pathway involves FimH-mediated colonization of the bladder epithelium via the recognition of mannose receptors. Bacterial invasion into superficial bladder umbrella cells can then ensue. […] To test this, a well-established gentamicin protection assay that allows the determination of the luminally bound fraction versus the intracellular fraction was utilized (FIG. 10). […] This may be due to contamination from bacteria in the urine or bacteria that are non-specifically associated with the epithelium. In any case, blocking invasion blocks the ability of the bacteria to rapidly expand in numbers. This is due to the ability of the mannosides to block the IBC mechanism.
Gentamicin protection assay. To enumerate bacteria present in the intracellular versus extracellular compartments, bladders were aseptically harvested at 6 hpi. The bladders were then bisected twice and washed three times in 500 μl of PBS each. The wash fractions were pooled, lightly spun at 500 rpm for 5 min to pellet exfoliated bladder cells, serially diluted, and plated onto LB agar to obtain the luminal fraction. The bladders were treated with 100 μg of gentamicin/ml for 90 min at 37° C. After treatment, the bladders were washed twice with PBS to eliminate residual gentamicin, homogenized in 1 ml of PBS, serially diluted, and plated onto LB agar to enumberate the CFUs in the intracellular fraction.
To enumerate bacteria present in the intracellular versus extracellular compartments, bladders were aseptically harvested at 6 hpi. The bladders were then bisected twice and washed three times in 500 μl of PBS each. The wash fractions were pooled, lightly spun at 500 rpm for 5 min to pellet exfoliated bladder cells, serially diluted, and plated onto LB agar to obtain the luminal fraction. The bladders were treated with 100 μg of gentamicin/ml for 90 min at 37° C. […]

T1 sequence (P08191 22-179): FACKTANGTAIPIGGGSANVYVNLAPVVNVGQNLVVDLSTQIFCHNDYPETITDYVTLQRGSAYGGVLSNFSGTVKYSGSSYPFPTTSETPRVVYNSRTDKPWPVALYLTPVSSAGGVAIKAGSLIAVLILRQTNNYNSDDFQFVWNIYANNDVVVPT

SMILES | DSF Melting Temp. [1] [°C] | intracellular bacteria (CFUs after gentamicin treatment) [2] | luminal bacteria [2]
COC(=O)c1cccc(-c2ccc(O[C@H]3O[C@H](CO)[C@@H](O)[C@H](O)[C@@H]3O)cc2)c1 [Compound 1, phenyl mannoside, reference compound] | 73.39 |  | 
CNC(=O)c1cc(C(=O)NC)cc(-c2ccc(O[C@H]3O[C@H](CO)[C@@H](O)[C@H](O)[C@@H]3O)cc2)c1 [ZFH-2056] |  | eliminated all CFUs; also recorded: significantly reduced | significantly reduced
